Values after ≈ are worked out from the molar mass of the structure shown. Read-outs that look alike come from different tables or passages of the source. Non-standard residues stand in square brackets, D forms with d. Residues, ends and D or L forms follow the SMILES beside them. *: point of attachment. Lauroyl = CCCCCCCCCCCC(=O)*; dOrn = NCCC[C@@H](N)C(=O)O
Columns and labels:
[1] = system: Propionibacterium acnes ATCC 6919; type: cell-based
Summary of the method: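 MIC by non-standard broth microdilution in reinforced Clostridial broth, log-phase P. acnes inoculum at 5×10^5 to 1×10^6 CFU/mL. Plates were held anaerobically 48–72 h at 37° C; MIC was the lowest peptide concentration with no visible turbidity relative to the no-peptide control.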

[2] = system: P. acnes; assay: Mouse skin assay, bactericidal activity on excised Balb/c skin; type: cell-based, Propionibacterium acnes; settings: Incubation time 120 min; P. acnes untreated 0.9 × 10^8 cfu/ml
[3] = system: Salmonella dublin (Lane); assay: MIC, NCCLS M7-A6 broth microdilution (Table 9, no superscript); type: cell-based
Summary of the method: (§1)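 MIC determined by microdilution in cation-adjusted Mueller Hinton broth after overnight growth at 37° C, defined as the lowest peptide level lacking turbidity.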

[4] = system: Staphylococcus aureus ATCC 29213; assay: MIC, NCCLS M7-A6 broth microdilution, cation-adjusted Mueller Hinton broth (Table 9, no superscript); type: cell-based; settings: ATCC 29213
Summary of the method: as §1

[5] = system: Candida albicans ATCC 18804; assay: MIC in yeasts, NCCLS M27-A2 broth microdilution, RPMI 1640 (Table 9, letter e); type: cell-based; settings: ATCC 18804
Summary of the method: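 Plates incubated 24 to 48 hours at 37° C, with yeast seeded at 0.5×10^3–2.5×10^3 CFU/milliliter final in RPMI 1640 (glutamine, phenol red indicator). MIC was read as the lowest peptide concentration showing no visible growth.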

[6] = system: S. aureus (Rosenbach); assay: Broth microdilution assay for MIC (20% TSB, 50 mM Na2CO3, 1 mM MgCl2), Table 4A; type: cell-based, Staphylococcus aureus; settings: 3 log or greater reduction in bacterial growth over 16 hours
Description: (§2) S. dublin (Lane), S. aureus (Rosenbach), P. acnes, ATCC 6919, E. coli K12 TOP10, and E. coli K12 55099 (protease neg.) bacterial strains were tested in the microbial inhibition assays described hereafter. The S. dublin (Lane), and S. aureus (Rosenbach) strains are available from ATCC (Staphylococcus aureus subsp. aureus Rosenbach (Number: 13150) and Salmonella choleraesuis serotype dublin (Number: 39184)). The strain of P. acnes was purchased from ATCC (strain #6919) (Manassas, Va.). The E. coli K12 strains TOP 10 and 55099 were purchased from Invitrogen (Carlsbad, Calif.) and ATCC respectively. HeLa cells were purchased from ATCC (CCL2). Tryptic soy broth (TSB), Brucella broth, reinforced Clostridial broth and agar were purchased from Becton & Dickinson (distributed by VWR, West Chester, Pa.). All plastic consumables were purchased from VWR (West Chester, Pa.). […]
(§3) The minimum inhibitory concentration (MIC) of peptide compositions for S. aureus, S. dublin and E. coli was determined in a broth microdilution assay. […] The MIC for each peptide for each microorganism was determined by three methods. The growth of bacteria was directly determined by measuring the absorption at 600 nm using a Versamax microplate reader (Molecular Devices). […] After incubation for 16 hours at 37° C. bacterial growth was evaluated and documented (Alpha Innotech gel documentation system).

[7] = system: human red blood cells; type: cell-based; settings: red cells of human
Description: Hemoglobin-release assays with human red blood cells (RBC) were performed to determine the hemolytic activity of granulysin peptides. Human RBCs (San Diego Blood Bank, San Diego, Calif.) were washed three times in PBS buffer (8 mM Na2HPO4, 1.5 mM KH2PO4, 140 mM NaCl and 2.7 mM KCl, pH 7.4), resuspended in PBS to the concentration of 5% (v/v). The RBC were then exposed to different peptide compositions at various concentrations (100-6.25 micromolar) and incubated at 37° C. for 60 minutes in a total volume of 120 microliters. Every experiment included a negative control without peptide and maximum control treated with 5% TX-100 for complete hemoglobin release. Samples were centrifuged for 1 minute at 13,000 g to remove debris and intact cells. The hemoglobin-containing supernatant was removed and transferred to a microwell plate. Hemoglobin release was quantified at A540 using a Versamax plate reader (Molecular Devices). The degree of hemolysis is expressed as percentage of hemolysis compared to the […], using the following formula: % hemolysis=(sample−neg. control)/(max. control−neg. control)×100.

[8] = system: E. coli K12 TOP10; settings: 3 log or greater reduction in bacterial growth over 16 hours
[9] = system: E. coli K12 55099 (protease neg.); settings: 3 log or greater reduction in bacterial growth over 16 hours
[10] = system: Pseudomonas aeruginosa ATCC 27853; assay: MIC, NCCLS M7-A6 broth microdilution (Table 9, no superscript); type: cell-based; settings: ATCC 27853
Summary of the method: as §1

[11] = system: Escherichia coli ATCC 25922; assay: as above; type: cell-based; settings: ATCC 25922
Summary of the method: as §1

[12] = system: Staphylococcus epidermidis ATCC 12228; assay: as above; type: cell-based; settings: ATCC 12228
Summary of the method: as §1

[13] = system: S. dublin (Lane); assay: Broth microdilution assay for MIC, Table 4A; type: cell-based, Salmonella dublin; settings: 3 log or greater reduction in bacterial growth over 16 hours
Description: as §2, §3

[14] = system: Propionibacterium acnes ATCC 6919; assay: MIC, agar dilution method NCCLS M11-A6, Brucella agar, anaerobic (Table 9, superscript c); type: cell-based; settings: letter c: agar dilution NCCLS M11-A6, Brucella agar, anaerobic
Summary of the method: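 MIC taken as the lowest peptide level giving no colonies on the plate. Plates were inoculated to 1.5×10^8 CFU/milliliter, then kept anaerobically at 37° C. for 48-96 hours; method follows NCCLS M11-A6.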

[15] = system: Staphylococcus epidermidis ATCC 12228; settings: ATCC 12228, pH 7.4
[16] = system: Pseudomonas aeruginosa ATCC 27853; settings: ATCC 27853, pH 7.4

| SMILES | MIC P. acnes [1] [µg·days/mL] | P. acnes recovered from mouse skin [2] | MIC S. dublin [3] [µg/mL] | MIC S. aureus [4] [µg/mL] | MIC C. albicans [5] [e ug/mL] | Minimum inhibitory concentration (MIC) S. aureus [6] [µM] | Hemolytic effect on human red blood cells ([7]; 6.25 Micromolar) [%] | Hemolytic effect on human red blood cells ([7]; 12.5 Micromolar) [%] | Hemolytic effect on human red blood cells ([7]; 25 Micromolar) [%] | Hemolytic effect on human red blood cells ([7]; 50 Micromolar) [%] | Hemolytic effect on human red blood cells ([7]; 100 Micromolar) [%] | Minimum inhibitory concentration (MIC) E. coli Top10 [8] [µM] | Minimum inhibitory concentration (MIC) E. coli 55099 [9] [µM] | MIC P. aeruginosa [10] [µg/mL] | MIC E. coli [11] [µg/mL] | MIC S. epidermidis [12] [µg/mL] | Minimum inhibitory concentration (MIC) S. dublin [13] [µM] | MIC P. acnes [14] [c ug/mL] | MIC S. epidermidis [15] [b ug/mL] | MIC P. aeruginosa [16] [b ug/mL] |
| --- | --- | --- | --- | --- | --- | --- | --- | --- | --- | --- | --- | --- | --- | --- | --- | --- | --- | --- | --- | --- |
| CSCC[C@@H](NC(=O)[C@@H](Cc1ccccc1)NC(=O)[C@@H](CC(N)=O)NC(=O)[C@@H](CCCNC(=N)N)NC(=O)[C@@H](CO)NC(=O)[C@@H](Cc1c[nH]c2ccccc12)NC(=O)[C@@H](CC(=O)O)NC(=O)[C@@H](CCCNC(=N)N)NC(=O)[C@@H](Cc1c[nH]c2ccccc12)NC(=O)[C@@H](CCCNC(=N)N)NC(=O)[C@@H](CO)NC(=O)[C@@H](CCCNC(=N)N)NC(=O)CNC(=O)[C@H](NC(=O)[C@@H](CCCNC(=N)N)NC(=O)[C@@H](CO)NC(=O)[C@H](NC(=O)[C@@H](CCCNC(=N)N)NC(=O)[C@H](NC(C)=O)[C@H](C)O)C(C)C)[C@H](C)O)C(=O)N[C@H](CCCNC(=N)N)C(=O)N[C@H](CCCN)C(=O)N[C@H](CCCN)C(=O)N[C@H](CCCN)C(=O)N[C@H](CCCN)C(=O)N[C@H](CCCN)C(=O)N[C@H](CCCN)C(=O)N[C@H](CCCN)C(=O)N[C@H](CCCN)C(N)=O [Peptide 35, Ac-trvsrtgrsrwrdwsrnfmroooooooo-NH2] (Ac-[dT][dR][dV][dS][dR][dT]G[dR][dS][dR][dW][dR][dD][dW][dS][dR][dN][dF][dM][dR][dOrn][dOrn][dOrn][dOrn][dOrn][dOrn][dOrn][dOrn]-NH2) | 6 | 4.5 × 10^4 cfu/ml | >64 | >64 | – | – | – | – | – | – | – | – | – | – | – | – | – | – | – | – |
| CCCCCCCCCCCC(=O)N[C@H](C(=O)N[C@@H](CCCNC(=N)N)C(=O)N[C@H](C(=O)N[C@@H](CO)C(=O)N[C@@H](CCCNC(=N)N)C(=O)N[C@H](C(=O)NCC(=O)N[C@@H](CCCNC(=N)N)C(=O)N[C@@H](CO)C(=O)N[C@@H](CCCNC(=N)N)C(=O)N[C@@H](Cc1c[nH]c2ccccc12)C(=O)N[C@@H](CCCNC(=N)N)C(=O)N[C@@H](CC(=O)O)C(=O)N[C@@H](Cc1c[nH]c2ccccc12)C(=O)N[C@@H](CO)C(=O)N[C@@H](CCCNC(=N)N)C(=O)N[C@@H](CC(N)=O)C(=O)N[C@@H](Cc1ccccc1)C(=O)N[C@@H](CCSC)C(=O)N[C@@H](CCCNC(=N)N)C(=O)N[C@@H](CCCCN)C(N)=O)[C@@H](C)O)C(C)C)[C@@H](C)O [Peptide 64] (Lauroyl-TRVSRTGRSRWRDWSRNFMRK-NH2) | – | – | 16 (≈ 5.48 µM) | 8 (≈ 2.74 µM) | 32 | 2 (≈ 5.84 µg/mL) | 14 | 15 | 29 | 46 | 81 | 2 (≈ 5.84 µg/mL) | 1 (≈ 2.92 µg/mL) | >64 | 64 (≈ 21.9 µM) | 1 (≈ 0.342 µM) | 8 (≈ 23.4 µg/mL) | >64 | – | – |
| CSCC[C@@H](NC(=O)[C@@H](Cc1ccccc1)NC(=O)[C@@H](CC(N)=O)NC(=O)[C@@H](CCCNC(=N)N)NC(=O)[C@@H](C)NC(=O)[C@H](NC(=O)[C@@H](CC(=O)O)NC(=O)[C@@H](CCCNC(=N)N)NC(=O)[C@@H](Cc1c[nH]c2ccccc12)NC(=O)[C@@H](CCCNC(=N)N)NC(=O)[C@@H](CO)NC(=O)[C@@H](CCCNC(=N)N)NC(C)=O)C(C)C)C(=O)N[C@H](CCCNC(=N)N)C(N)=O [Peptide 96, Ac-rsrwrdvarnfmr-NH2] (Ac-[dR][dS][dR][dW][dR][dD][dV][dA][dR][dN][dF][dM][dR]-NH2) | 12.5 | – | >64 | >64 | 8 | – | – | – | – | – | – | – | – | – | – | – | – | – | 12.5 | 50 |
